Columns and labels:
MBP–β1AR6P + mini-Gs = MBP–β1AR6P + mini-Gs (Meleagris gallopavo, UniProt P07700, C116L/C358A/D322K/DEL244-271/E130W/F327A/F338M/M44C/M90V/V103C); assay: Radioligand saturation binding, receptor in nanodiscs with mini-Gs; set-up: species or system turkey (Meleagris gallopavo); conditions: read-out: apparent Kd
MBP–β1AR6P = MBP–β1AR6P (Meleagris gallopavo, UniProt P07700, C116L/C358A/D322K/DEL244-271/E130W/F327A/F338M/M44C/M90V/V103C); assay: Radioligand saturation binding, receptor in nanodiscs; set-up: species or system turkey (Meleagris gallopavo); conditions: read-out: apparent Kd
MBP–β1AR6P + βarr1 = MBP–β1AR6P + βarr1 (Meleagris gallopavo, UniProt P07700, C116L/C358A/D322K/DEL244-271/E130W/F327A/F338M/M44C/M90V/V103C); assay: Radioligand saturation binding, receptor in nanodiscs with βarr1; set-up: species or system turkey (Meleagris gallopavo); conditions: read-out: apparent Kd
β44–V2R = assay: Arrestin recruitment bias from GloSensor cAMP; assay type: cell-based, turkey (Meleagris gallopavo); conditions: with reference to isoprenaline, equiactive comparison approach

Kd (MBP–β1AR6P + mini-Gs) [nM] | Kd (MBP–β1AR6P) [nM] | Kd (MBP–β1AR6P + βarr1) [nM] | Compound | bias factor (arrestin recruitment bias) (β44–V2R)
1.5 | 6 | 6 | CCCc1ccccc1OCC(O)CNC(C)C (stereo not shown) [[^3H]DHA, tritiated dihydroalprenolol] | 
 |  |  | COc1ccc(CC(C)NCC(O)c2ccc(O)c(NC=O)c2)cc1 (stereo not shown) [formoterol] | 2.3 ± 0.4

— paper PMC7115876 (Nature, 2020)
